This note sets out measurements from patent US20250084178A1, “ANTI-CD39 ANTIBODIES AND USE THEREOF” (ARCUS BIOSCIENCES, INC., priority 2022, published 2025).

The subject of experiment [1] is SK-MEL-5 cells. Put plainly: Extracellular ATP release after oxaliplatin, SK-MEL-5 cells. The experiment is classed as cell-based, human. The conditions noted are these: 250 μM oxaliplatin, 8 hours. As to the method:
(§1) To evaluate cellular ATP release following oxaliplatin treatment, murine colon carcinoma cell lines CT26 and MC38 and human melanoma cell line SK-MEL-5 were defrosted, rinsed, and resuspended in their respective culture media. Culture media for CT26 and MC38 is RPMI+10% FBS+1% glutamax+1% penicillin-streptomycin+1% sodium pyruvate. Culture media for SK-MEL-5 is EMEM+10% FBS+1% glutamax+1% penicillin-streptomycin+1% sodium pyruvate. Cells were plated at 2.5×10^4 cells per well in a 96-well plate and incubated overnight at 37° C., 5% CO2. The following day, the cells were treated with the vehicle (PBS), 100 μM or 250 μM oxaliplatin. […] To determine cellular viability, the cells were incubated with treatments for 24 hours at 37° C., 5% CO2. At the end of the incubation period, viability was determined using luminescence-based Cell Titer Glo 2.0 assay (Promega, Cat. No. G9242). Data are presented as viability normalized to untreated vehicle controls (FIG. 19A). To determine HMGB1 release, the cells were incubated with treatment for 24 hours at 37° C., 5% CO2. At the end of the incubation period, the plates were centrifuged at 400×g for 5 minutes and supernatants were collected. HMGB1 levels in the culture supernatants were then determined using Lumit HMGB1 Kit (Promega, Cat. No. CS3030B01) following manufacturer's instructions (FIG. 19B). […]

Experiment [2] deals with CT26 and MC38 cells. Put plainly: Extracellular ATP release after oxaliplatin, murine colon carcinoma lines. The experiment is classed as cell-based. The conditions noted are these: 250 μM oxaliplatin, 8 hours. As to the method:
as §1

In the case of `O=C1[O][Pt]2([NH][C@@H]3CCCC[C@H]3[NH]2)[O]C1=O` [oxaliplatin, reference compound], the “Extracellular ATP release” value in experiment [1] and in experiment [2] was “demonstrated ATP release” throughout.
